Source: US12281095B2, “Pesticidally active diazine-amide compounds” (SYNGENTA CROP PROTECTION AG, priority 2019, dated 2025)

Legend:
Assay type in all cases: in vivo
[1] = system: Spodoptera littoralis (Egyptian Cotton Leaf Worm); experiment: Example B9: Spodoptera littoralis (Egyptian Cotton Leaf Worm), sprayed cotton leaf discs; conditions: foliar, 72 h, application rate of 200 ppm, L1 larvae, 3 days after infestation, read-out: control in at least one of the three categories (mortality, anti-feedant or growth inhibition)
[2] = system: Plutella xylostella (Diamondback Moth); experiment: Example B13: Plutella xylostella (Diamondback Moth), artificial diet, 96-well; conditions: 216 h, application rate of 500 ppm, eggs/L1 larvae, 9 days after infestation
Protocol: Example B13: Plutella xylostella (Diamondback Moth)
96-well microtiter plates containing artificial diet were treated with aqueous test solutions, prepared from 10′000 ppm DMSO stock solutions, by a liquid handling robot. After drying, eggs (˜30 per well) were infested onto a netted lid which was suspended above the diet. The eggs hatch and L1 larvae move down to the diet. The samples were assessed for mortality 9 days after infestation.

[3] = system: Plutella xylostella (Diamond Back Moth); experiment: Example B5: Plutella xylostella (Diamond Back Moth), artificial diet, 24-well; conditions: 192 h, application rate of 200 ppm, eggs, 8 days after infestation, read-out: control in at least one of the two categories (mortality or growth inhibition)
Protocol: Example B5: Plutella xylostella (Diamond Back Moth)
24-well microtiter plates with artificial diet were treated with aqueous test solutions prepared from 10′000 ppm DMSO stock solutions by pipetting. After drying, Plutella eggs were pipetted through a plastic stencil onto a gel blotting paper and the plate was closed with it. The samples were assessed for mortality and growth inhibition in comparison to untreated samples 8 days after infestation.

[4] = system: Diabrotica balteata (Corn Root Worm); experiment: Example B1: Diabrotica balteata (Corn Root Worm), sprayed maize sprouts; conditions: 96 h, application rate of 200 ppm, L2 larvae, 4 days after infestation, read-out: control in at least one of the two categories (mortality or growth inhibition)
Protocol: Example B1: Diabrotica balteata (Corn Root Worm)
Maize sprouts placed onto an agar layer in 24-well microtiter plates were treated with aqueous test solutions prepared from 10′000 ppm DMSO stock solutions by spraying. After drying, the plates were infested with L2 larvae (6 to 10 per well). The samples were assessed for mortality and growth inhibition in comparison to untreated samples 4 days after infestation.

[5] = system: Chilo suppressalis (Striped Rice Stemborer); experiment: Example B4: Chilo suppressalis (Striped Rice Stemborer), artificial diet; conditions: 144 h, application rate of 200 ppm, L2 larvae, 6 days after infestation, read-out: control in at least one of the three categories (mortality, anti-feedant or growth inhibition)
Protocol: Example B4: Chilo suppressalis (Striped Rice Stemborer)
24-well microtiter plates with artificial diet were treated with aqueous test solutions prepared from 10′000 ppm DMSO stock solutions by pipetting. After drying, the plates were infested with L2 larvae (6-8 per well). The samples were assessed for mortality, anti-feeding effect, and growth inhibition in comparison to untreated samples 6 days after infestation. Control of Chilo suppressalis by a test sample is given when at least one of the categories mortality, anti-feedant effect, and growth inhibition is higher than the untreated sample.

[6] = system: Euschistus heros (Neotropical Brown Stink Bug); experiment: Example B2: Euschistus heros (Neotropical Brown Stink Bug), sprayed soybean leaves; conditions: 120 h, application rate of 200 ppm, N2 nymphs, 5 days after infestation, read-out: control in at least one of the two categories (mortality or growth inhibition)
Protocol: Example B2: Euschistus heros (Neotropical Brown Stink Bug)
Soybean leaves on agar in 24-well microtiter plates were sprayed with aqueous test solutions prepared from 10′000 ppm DMSO stock solutions. After drying the leaves were infested with N2 nymphs. The samples were assessed for mortality and growth inhibition in comparison to untreated samples 5 days after infestation.

CC(NC(=O)c1cc(C(F)(F)F)cc(S(=O)(=O)C(F)(F)F)c1)c1nccnc1-c1ncc(OC(F)F)cn1 (stereo not drawn) [P19, N-[1-[3-[5-(difluoromethoxy)pyrimidin-2-yl]pyrazin-2-yl]ethyl]-3-(trifluoromethyl)-5-(trifluoromethylsulfonyl)benzamide]
≥ 80%: percent control (mortality, anti-feedant effect or growth inhibition) at 200 ppm [1] | mortality at 500 ppm [2] | percent control (mortality or growth inhibition) at 200 ppm [3] | percent control (mortality or growth inhibition) at 200 ppm [4] | percent control (mortality, anti-feedant effect or growth inhibition) at 200 ppm [5]

CC(NC(=O)c1cc(C(F)(F)F)cc(S(=O)(=O)C(F)(F)F)c1)c1nccnc1-c1ccc(OCC(F)F)cn1 (stereo not drawn) [P20, N-[1-[3-[5-(2,2-difluoroethoxy)-2-pyridyl]pyrazin-2-yl]ethyl]-3-(trifluoromethyl)-5-(trifluoromethylsulfonyl)benzamide]
≥ 80%: mortality at 500 ppm [2] | percent control (mortality, anti-feedant effect or growth inhibition) at 200 ppm [5]

CC(NC(=O)c1cc(C(F)(F)F)nc(C2(C#N)CC2)c1)c1nccnc1-c1ccc(OCC(F)(F)F)cn1 (stereo not drawn) [P23, 2-(1-cyanocyclopropyl)-N-[1-[3-[5-(2,2,2-trifluoroethoxy)-2-pyridyl]pyrazin-2-yl]ethyl]-6-(trifluoromethyl)pyridine-4-carboxamide]
≥ 80%: percent control (mortality, anti-feedant effect or growth inhibition) at 200 ppm [1] | mortality at 500 ppm [2] | percent control (mortality or growth inhibition) at 200 ppm [3] | percent control (mortality or growth inhibition) at 200 ppm [4] | percent control (mortality, anti-feedant effect or growth inhibition) at 200 ppm [5]

CC(NC(=O)c1cc(C(F)(F)F)cc(C2(C#N)CC2)c1)c1nccnc1-c1ccc(OCC(F)(F)F)cn1 (stereo not drawn) [P24, 3-(1-cyanocyclopropyl)-N-[1-[3-[5-(2,2,2-trifluoroethoxy)-2-pyridyl]pyrazin-2-yl]ethyl]-5-(trifluoromethyl)benzamide]
≥ 80%: percent control (mortality, anti-feedant effect or growth inhibition) at 200 ppm [1] | mortality at 500 ppm [2] | percent control (mortality or growth inhibition) at 200 ppm [3] | percent control (mortality or growth inhibition) at 200 ppm [4] | percent control (mortality, anti-feedant effect or growth inhibition) at 200 ppm [5]

CC(NC(=O)c1cc(C2CC2)cc(C(F)(F)F)c1)c1nccnc1-c1ccc(OCC(F)F)cn1 (stereo not drawn) [P26, 3-cyclopropyl-N-[1-[3-[5-(2,2-difluoroethoxy)-2-pyridyl]pyrazin-2-yl]ethyl]-5-(trifluoromethyl)benzamide]
≥ 80%: percent control (mortality, anti-feedant effect or growth inhibition) at 200 ppm [1] | mortality at 500 ppm [2] | percent control (mortality or growth inhibition) at 200 ppm [3] | percent control (mortality, anti-feedant effect or growth inhibition) at 200 ppm [5]

CC(NC(=O)c1cc(C2CC2)cc(C(F)(F)F)c1)c1nccnc1-c1ccc(OCC(F)(F)F)cn1 (stereo not drawn) [P27, 3-cyclopropyl-N-[1-[3-[5-(2,2,2-trifluoroethoxy)-2-pyridyl]pyrazin-2-yl]ethyl]-5-(trifluoromethyl)benzamide]
≥ 80%: mortality at 500 ppm [2] | percent control (mortality or growth inhibition) at 200 ppm [3] | percent control (mortality or growth inhibition) at 200 ppm [4] | percent control (mortality, anti-feedant effect or growth inhibition) at 200 ppm [5]

CC(NC(=O)c1cc(C(F)(F)F)cc(S(=O)(=O)C(F)(F)F)c1)c1nccnc1-c1ncc(OCC(F)F)cn1 (stereo not drawn) [P28, N-[1-[3-[5-(2,2-difluoroethoxy)pyrimidin-2-yl]pyrazin-2-yl]ethyl]-3-(trifluoromethyl)-5-(trifluoromethylsulfonyl)benzamide]
≥ 80%: percent control (mortality, anti-feedant effect or growth inhibition) at 200 ppm [1] | mortality at 500 ppm [2] | percent control (mortality or growth inhibition) at 200 ppm [3] | percent control (mortality or growth inhibition) at 200 ppm [6] | percent control (mortality or growth inhibition) at 200 ppm [4] | percent control (mortality, anti-feedant effect or growth inhibition) at 200 ppm [5]

CC(NC(=O)c1cc(C(F)(F)F)cc(C(F)(F)C2CC2)c1)c1nccnc1-c1ncc(OC(F)F)cn1 (stereo not drawn) [P29, 3-[cyclopropyl(difluoro)methyl]-N-[1-[3-[5-(difluoromethoxy)pyrimidin-2-yl]pyrazin-2-yl]ethyl]-5-(trifluoromethyl)benzamide]
≥ 80%: percent control (mortality, anti-feedant effect or growth inhibition) at 200 ppm [1] | mortality at 500 ppm [2] | percent control (mortality or growth inhibition) at 200 ppm [3] | percent control (mortality or growth inhibition) at 200 ppm [6] | percent control (mortality or growth inhibition) at 200 ppm [4] | percent control (mortality, anti-feedant effect or growth inhibition) at 200 ppm [5]

CC(NC(=O)c1cc(C(F)(F)F)cc(C(F)(F)C2CC2)c1)c1nccnc1-c1ccc(OCC(F)(F)F)cn1 (stereo not drawn) [P31, 3-[cyclopropyl(difluoro)methyl]-N-[1-[3-[5-(2,2,2-trifluoroethoxy)-2-pyridyl]pyrazin-2-yl]ethyl]-5-(trifluoromethyl)benzamide]
≥ 80%: mortality at 500 ppm [2]

CC(NC(=O)c1cc(C(F)(F)F)cc(C2(C#N)CC2)c1)c1nccnc1-c1ccc(OCC(F)F)cn1 (stereo not drawn) [P33, 3-(1-cyanocyclopropyl)-N-[1-[3-[5-(2,2-difluoroethoxy)-2-pyridyl]pyrazin-2-yl]ethyl]-5-(trifluoromethyl)benzamide]
≥ 80%: percent control (mortality, anti-feedant effect or growth inhibition) at 200 ppm [1] | mortality at 500 ppm [2] | percent control (mortality or growth inhibition) at 200 ppm [3] | percent control (mortality or growth inhibition) at 200 ppm [4] | percent control (mortality, anti-feedant effect or growth inhibition) at 200 ppm [5]

CC(NC(=O)c1cc(C2CC2C(F)(F)F)cc(C(F)(F)F)c1)c1nccnc1-c1ncc(OCC(F)F)cn1 (stereo not drawn) [P38, N-[1-[3-[5-(2,2-difluoroethoxy)pyrimidin-2-yl]pyrazin-2-yl]ethyl]-3-(trifluoromethyl)-5-[2-(trifluoromethyl)cyclopropyl]benza-mide]
≥ 80%: percent control (mortality, anti-feedant effect or growth inhibition) at 200 ppm [1] | mortality at 500 ppm [2] | percent control (mortality or growth inhibition) at 200 ppm [3] | percent control (mortality or growth inhibition) at 200 ppm [4] | percent control (mortality, anti-feedant effect or growth inhibition) at 200 ppm [5]

CC(NC(=O)c1cc(C(F)(F)F)cc(C(F)(F)C2CC2)c1)c1nccnc1-c1ncc(OCC(F)F)cn1 (stereo not drawn) [P39, 3-[cyclopropyl(difluoro)methyl]-N-[1-[3-[5-(2,2-difluoroethoxy)pyrimidin-2-yl]pyrazin-2-yl]ethyl]-5-(trifluoromethyl)benzamide]
≥ 80%: percent control (mortality, anti-feedant effect or growth inhibition) at 200 ppm [1] | mortality at 500 ppm [2] | percent control (mortality or growth inhibition) at 200 ppm [3] | percent control (mortality, anti-feedant effect or growth inhibition) at 200 ppm [5]

CC(NC(=O)c1cc(C2CC2)cc(C(F)(F)F)c1)c1nccnc1-c1ncc(OC(F)F)cn1 (stereo not drawn) [P41, 3-cyclopropyl-N-[1-[3-[5-(difluoromethoxy)pyrimidin-2-yl]pyrazin-2-yl]ethyl]-5-(trifluoromethyl)benzamide]
≥ 80%: percent control (mortality, anti-feedant effect or growth inhibition) at 200 ppm [1] | mortality at 500 ppm [2] | percent control (mortality or growth inhibition) at 200 ppm [3] | percent control (mortality or growth inhibition) at 200 ppm [4] | percent control (mortality, anti-feedant effect or growth inhibition) at 200 ppm [5]

C[C@H](NC(=O)c1cc(C(F)(F)F)cc(C(F)(F)C2CC2)c1)c1nccnc1-c1ccc(C#N)cn1 [P42, N-[(1S)-1-[3-(5-cyano-2-pyridyl)pyrazin-2-yl]ethyl]-3-[cyclopropyl(difluoro)methyl]-5-(trifluoromethyl)benzamide]
≥ 80%: percent control (mortality, anti-feedant effect or growth inhibition) at 200 ppm [1] | percent control (mortality or growth inhibition) at 200 ppm [3] | percent control (mortality or growth inhibition) at 200 ppm [4] | percent control (mortality, anti-feedant effect or growth inhibition) at 200 ppm [5]

C[C@@H](c1nccnc1-c1ccc(C#N)cn1)N(CC1CC1)C(=O)c1cc(C(F)(F)F)cc(C(F)(F)C2CC2)c1 [P43, N-[(1S)-1-[3-(5-cyano-2-pyridyl)pyrazin-2-yl]ethyl]-3-[cyclopropyl(difluoro)methyl]-N-(cyclopropylmethyl)-5-(trifluoromethyl)benzamide]
≥ 80%: percent control (mortality, anti-feedant effect or growth inhibition) at 200 ppm [1] | percent control (mortality or growth inhibition) at 200 ppm [3] | percent control (mortality or growth inhibition) at 200 ppm [4] | percent control (mortality, anti-feedant effect or growth inhibition) at 200 ppm [5]

COC1(c2cc(C(=O)NC(C)c3nccnc3-c3ccc(C#N)cn3)cc(C(F)(F)F)c2)CC1 (stereo not drawn) [P46, N-[1-[3-(5-cyano-2-pyridyl)pyra-zin-2-yl]ethyl]-3-(1-methoxycyclopropyl)-5-(trifluoromethyl)benzamide]
≥ 80%: percent control (mortality, anti-feedant effect or growth inhibition) at 200 ppm [1] | percent control (mortality or growth inhibition) at 200 ppm [3] | percent control (mortality or growth inhibition) at 200 ppm [4] | percent control (mortality, anti-feedant effect or growth inhibition) at 200 ppm [5]
